# Test results from patent publication US20240116896A1 (ATAI Life Sciences AG, priority 2022, published 2024).
# Tests used:
# 5-HT2A = 5-HT2A (Homo sapiens, UniProt P28223); assay: IPOne (IP1 HTRF) assay, CHO-K1 cells expressing human 5-HT2A; type: cell-based; parameters: expressed in transfected cells; host or cells: CHO-K1; settings: for EC50: CHO-K1, human 5-HT2A; for activation at 0.3 µM / activation at 30 µM: CHO-K1, percentage of reference agonist α-Me-5-HT at its EC100
# Description: (§1) IPOne assays were performed using stably-transfected cell lines (CHO-K1) expressing human 5-HT2A or 5-HT2B receptors. Upon activation of these receptors, Gq-mediated myo-Inositol 1 phosphate (IP1) production is detected by a Homogeneous Time-Resolved Fluorescence (HTRF) competitive immunoassay, whereby an IP1 analog coupled to a fluorophore (acceptor) competes with endogenous IP1 for binding to a labeled anti-IP1 antibody (donor). The resulting signal is inversely proportional to the concentration of IP1 in the sample. Cells were incubated with an IP1 inhibitor (to prevent degradation and allow detection) and either reference compound or test compound. α-Me-5-HT was used as the assay reference agonist. Activation of 5-HT2A or 5-HT2B receptors was measured via accumulation of IP1 detected by HTRF. Agonist activity of test compounds was expressed as a percentage of the activity of the reference agonist at its EC100 concentration.
# 5-HT2B = 5-HT2B (Homo sapiens, UniProt P41595); assay: IPOne (IP1 HTRF) assay, CHO-K1 cells expressing human 5-HT2B; type: cell-based; parameters: expressed in transfected cells; host or cells: CHO-K1; settings: for EC50: CHO-K1, human 5-HT2B; for activation at 0.3 µM / activation at 30 µM: CHO-K1, percentage of reference agonist α-Me-5-HT at its EC100
# Description: as §1
# 5-HT2B, sequence (P41595 whole entry): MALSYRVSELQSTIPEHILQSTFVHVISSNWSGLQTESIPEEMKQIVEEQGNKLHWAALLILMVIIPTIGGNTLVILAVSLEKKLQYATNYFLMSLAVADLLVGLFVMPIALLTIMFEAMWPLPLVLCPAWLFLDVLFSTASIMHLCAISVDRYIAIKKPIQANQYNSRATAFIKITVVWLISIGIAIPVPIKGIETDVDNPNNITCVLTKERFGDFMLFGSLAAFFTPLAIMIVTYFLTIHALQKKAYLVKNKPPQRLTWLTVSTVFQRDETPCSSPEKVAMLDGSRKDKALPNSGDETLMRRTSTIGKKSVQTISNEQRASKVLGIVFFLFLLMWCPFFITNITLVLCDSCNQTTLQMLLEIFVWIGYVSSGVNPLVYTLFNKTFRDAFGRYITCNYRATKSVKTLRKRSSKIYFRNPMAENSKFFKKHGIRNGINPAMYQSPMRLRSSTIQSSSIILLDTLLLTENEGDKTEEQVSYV
# 5-HT2A, sequence (P28223 whole entry): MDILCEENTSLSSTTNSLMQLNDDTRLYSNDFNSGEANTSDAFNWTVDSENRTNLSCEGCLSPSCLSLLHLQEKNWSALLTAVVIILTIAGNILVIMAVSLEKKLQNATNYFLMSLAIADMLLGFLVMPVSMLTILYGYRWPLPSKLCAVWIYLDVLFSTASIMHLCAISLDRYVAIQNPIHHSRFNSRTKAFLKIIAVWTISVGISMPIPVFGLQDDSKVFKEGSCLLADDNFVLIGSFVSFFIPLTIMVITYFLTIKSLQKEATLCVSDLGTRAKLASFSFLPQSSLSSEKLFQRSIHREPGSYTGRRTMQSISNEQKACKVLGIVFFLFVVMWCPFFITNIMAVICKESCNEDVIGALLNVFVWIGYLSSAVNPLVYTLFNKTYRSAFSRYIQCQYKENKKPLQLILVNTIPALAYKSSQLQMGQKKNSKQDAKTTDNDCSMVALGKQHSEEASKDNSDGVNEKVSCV
SMILES,EC50 (5-HT2A) [nM],activation at 0.3 µM (5-HT2A) [%],activation at 30 µM (5-HT2A) [%],EC50 (5-HT2B) [nM],activation at 0.3 µM (5-HT2B) [%],activation at 30 µM (5-HT2B) [%]
OC[C@@H]1CCCN1CCc1c[nH]c2ccc(O)cc12 [Compound 51],45.6,99,101,86.7,85.7,99.1
"COc1cccc2[nH]c(Br)c(CCN3CCCC3CO)c12 (stereo not drawn) [Compound 67, (1-(2-(2-bromo-4-methoxy-1H-indol-3-yl)ethyl)pyrrolidin-2-yl)methanol]",,27.2,95.9,,19.2,87.1
"COc1cccc2[nH]cc(CCN3CCC[C@H]3CO)c12 [Compound 48, (S)-(1-(2-(4-methoxy-1H-indol-3-yl)ethyl)pyrrolidin-2-yl)methanol]",11.2,83.2,90.9,22.2,62,83.4
"CCOC(=O)[C@@H]1CCCN1CCc1c[nH]c2ccccc12 [Compound 52, ethyl (2-(1H-indol-3-yl)ethyl)-L-prolinate]",888,24,101,2560,25.4,99.2
"OC[C@@H]1CCCN1CCc1c[nH]c2ccc(F)cc12 [Compound 59, (S)-(1-(2-(5-fluoro-1H-indol-3-yl)ethyl)pyrrolidin-2-yl)methanol]",7.7,86.3,89.4,8.9,79.8,85.7
"CC(C)(O)[C@@H]1CCCN1CCc1c[nH]c2ccccc12 [Compound 74, 2-[(2S)-1-[2-(1H-indol-3-yl)ethyl]pyrrolidin-2-yl] propan-2-ol]",247,80.2,102,526,63,100
"OC[C@@H]1CCN1CCc1c[nH]c2ccccc12 [Compound 54, (S)-(1-(2-(1H-indol-3-yl)ethyl)azetidin-2-yl)methanol]",249,81.1,101,780,62,97.9
COc1ccc2[nH]cc(CCN3CCCC3CO)c2c1 (stereo not drawn) [Compound 30],,97.8,100,,89.4,98.8
"OC[C@H]1CCCN1CCc1c[nH]c2ccccc12 [Compound 32, (R)-(1-(2-(1H-indol-3-yl)ethyl)pyrrolidin-2-yl)methanol]",,7.16,42.1,,4.28,33.9
"OC1CCN(CCc2c[nH]c3ccccc23)C1 (stereo not drawn) [Compound 7, 1-(2-(1H-indol-3-yl)ethyl)pyrrolidin-3-ol]",,7.01,42,,5.71,28.7
"CC[C@@H](O)[C@@H]1CCCN1CCc1c[nH]c2ccccc12 [Compound 77, (R)-1-((S)-1-(2-(1H-indol-3-yl)ethyl)pyrrolidin-2-yl)propan-1-ol]",,23.9,90.6,,18.2,86.7
"OC[C@@H]1CCCN1CCc1c[nH]c2ccc(OC(F)(F)F)cc12 [Compound 61, (S)-(1-(2-(5-(trifluoromethoxy)-1H-indol-3-yl)ethyl)pyrrolidin-2-yl)methanol]",76,46.1,88.3,57.7,37.5,76.2
"COC(=O)[C@]1(C)CCCN1CCc1c[nH]c2ccccc12 [Compound 92, methyl (S)-1-(2-(1H-indol-3-yl)ethyl)-2-methylpyrrolidine-2-carboxylate]",,-16.3,-6.28,,-2.23,15.4
"OC[C@H]1CCN1CCc1c[nH]c2ccccc12 [Compound 53, (R)-(1-(2-(1H-indol-3-yl)ethyl)azetidin-2-yl)methanol]",,3.07,70.7,,16.3,74.7
"CC[C@H](O)[C@@H]1CCCN1CCc1c[nH]c2ccccc12 [Compound 78, (S)-1-((S)-1-(2-(1H-indol-3-yl)ethyl)pyrrolidin-2-yl)propan-1-ol]",,1.39,64.3,,5.16,82.2
"COc1ccc(Br)c2[nH]cc(CCN3CCCC3CO)c12 (stereo not drawn) [Compound 42, (1-(2-(7-bromo-4-methoxy-1H-indol-3-yl)ethyl)pyrrolidin-2-yl)methanol]",,78.5,94.1,,22,46.2
